IC50 data for 58 molecules are collected here from US20250195475A1, “CDK2 INHIBITOR AND PREPARATION METHOD AND USE THEREOF” (INVENTISBIO CO., LTD., priority 2022, published 2025).

The IC50 is the point on the concentration scale where inhibition reaches its midpoint. Read a high IC50 as a need for much substance.

The target of this experiment is CDK2/CyclinE1 (Homo sapiens (Human), UniProt P24941). The experiment is described as follows: CDK2 kinase assay (TR-FRET). The format is biochemical. The settings on record: CDK2/CyclinE1 0.5 nM, ATP 50 μM. Here is the method:
The purpose of these assays is to evaluate the inhibition of small molecule inhibitors by using TR-FRET assay.
Compound Preparation. Dissslove the compounds into DMSO solution to make 10 mM DMSO stock. Serially dilute the stock solution from highest concentration down to lowest in DMSO to make the compound stock plate (100× stock plates). To make 5× compound intermediate plate, add 38 μL of assay buffer (50 mM HEPES, pH 7.5, 0.05 mg/mL BSA, 10 mM MgCl2, 1 mM EGTA, 0.01% Tween-20, 2 mM DTT) into each well of the V-bottom plate; then transfer 2 μL of the stock compound solution of each concentration from the compound stock plate (100× stock), and mix well.
Enzyme reaction. Transfer 2 μL compound from 5× intermediate plate into assay plate, then add 4 μL/well 2.5× Enzyme mix to assay plate, incubation for 10 min at room temperature. For positive control wells, add 4 μL/well assay buffer instead of Enzyme mix. Then add 4 μL/well 2.5× Substrate mix to assay plate, and incubation at 25° C. for 30 min at room temperature. After reaction, 10 μL 2× Detection mix (final 15 mM EDTA, 1× LANCE Detection Buffer, 0.5 nM Detection antibody) was added and incubated for 1 h prior to detection with excitation and emission at 320 and 665 nm (Tecan Spark® TR-FRET mode Tecan).
Inhibition rate (IR) of the tested compounds was determined by the following formula: IR (%)=(average High control−compound well)/(average High control−average Low control)*100%. Fit the compound IC50 from non-linear regression equation: Y=Bottom+(Top−Bottom)/(1+10^((Log IC50−X)*HillSlope)). X: Log of cpd concentration; Y: Inhibition rate (TR); Top and Bottom: Plateaus in same units as Y, log IC50: same log units as X; HillSlope: Slope factor or Hill slope.

On to `CC(C)NC(=O)OC1COC(c2cc(NC(=O)c3ccnn3C)n[nH]2)C1` (stereo not shown) [Compound 26], for which the IC50 was 3.7 nM.
For `CC(C)NC(=O)OC1COC(c2cc(NC(=O)c3ccnn3C)n[nH]2)C1` (stereo not shown) [Compound 27] the value was 1.2 nM.
For `COC[C@@H]1C[C@H]1C(=O)Nc1cc([C@H]2CC[C@@H](OC(=O)NC(C)C)C2)[nH]n1` [Compound 28] the value was 110 nM.
In the case of `CC(C)NC(=O)O[C@@H]1CC[C@H](c2cc(Nc3nccc(CCO)n3)n[nH]2)C1` [Compound 29], inhibition was half-maximal at 68.8 nM (IC50).
For `CC(C)NC(=O)O[C@@H]1CC[C@H](c2cc(NC(=O)[C@H]3CCN(C(=O)C(C)C)C3)n[nH]2)C1` [Compound 31] the value was 8.1 nM.
In turn, `CC(C)NC(=O)O[C@@H]1CC[C@H](c2cc(NC(=O)[C@H]3CCN(C(=O)c4cnn(C)c4)C3)n[nH]2)C1` [Compound 32] gave an IC50 of 2.9 nM.
The molecule `COC[C@H]1C[C@@H]1C(=O)Nc1cc([C@H]2CC[C@@H](OC(=O)NC34CC(C3)C4)C2)[nH]n1` [Compound 34] registered an IC50 of 0.7 nM.
The figure for `COC[C@H]1C[C@@H]1C(=O)Nc1cc([C@H]2CC[C@@H](OC(=O)NC3(C)CC3)C2)[nH]n1` [Compound 35] is 0.8 nM.
For `CC(C)NC(=O)O[C@@H]1CC[C@H](c2cc(NC(=O)C3CCCC3)n[nH]2)C1` [Compound 37] the value was 2.9 nM; for `COC[C@H]1C[C@@H]1C(=O)Nc1cc([C@H]2CC[C@@H](OC(N)=O)C2)[nH]n1` [Compound 40], 47.7 nM.
The figure for `Cn1nccc1C(=O)Nc1cc([C@H]2CC[C@@H](OC(=O)NC34CCC(CC3)OC4)C2)[nH]n1` [Compound 42] is 4.4 nM; for `CC(C)NC(=O)O[C@@H]1CC[C@H](c2cc(NC(=O)[C@H]3C[C@@H]3COC(C)C)n[nH]2)C1` [Compound 45] it is 2.7 nM.
Molecule `CC(C)NC(=O)O[C@@H]1CC[C@H](c2cc(NC(=O)C34CC(C3)C4)n[nH]2)C1` [Compound 46] gave a half-maximal inhibitory concentration (IC50) of 1.5 nM.
For `CC1(NC(=O)OC2COC(c3cc(NC(=O)Cc4cc(F)cc(F)c4)n[nH]3)C2)CCOC1` (stereo not shown) [Compound 50] the value was 0.9 nM; for `CC1(NC(=O)OC2COC(c3cc(NC(=O)Cc4cc(F)cc(F)c4)n[nH]3)C2)CCOC1` (stereo not shown) [Compound 51], 1.7 nM.
For `CC(C)NC(=O)O[C@@H]1CC[C@H](c2cc(NC(=O)[C@H]3C[C@@H]3CC#N)n[nH]2)C1` [Compound 56] the value was 4 nM; for `COC[C@H]1C[C@@H]1C(=O)Nc1cc([C@H]2CC[C@@H](OC(=O)N[C@@H](C)C3CC3)C2)[nH]n1` [Compound 57], 5.8 nM.
For `CC(C)NC(=O)O[C@@H]1CC[C@H](c2cc(NC(=O)[C@@H]3CCN(S(=O)(=O)C(C)C)C3)n[nH]2)C1` [Compound 58] the value was 4.1 nM.
Turning to `CC[C@H](C)NC(=O)O[C@@H]1CC[C@H](c2cc(NC(=O)[C@@H]3CCN(S(C)(=O)=O)C3)n[nH]2)C1` [Compound 59], the IC50 was found to be 4.9 nM.
For `CC(C)NC(=O)OC1COC(c2cc(NC(=O)Cc3ccc(C(F)(F)F)cc3)n[nH]2)C1` (stereo not shown) [Compound 62] the value was 2.3 nM; for `CC(C)NC(=O)OC1COC(c2cc(NC(=O)Cc3ccc(C(F)(F)F)cc3)n[nH]2)C1` (stereo not shown) [Compound 63], 9.7 nM.
Consider `CC(C)NC(=O)OC1COC(c2cc(NC(=O)Cc3ccccc3C(F)(F)F)n[nH]2)C1` (stereo not shown) [Compound 64], for which the half-inhibitory concentration (IC50) was 16.6 nM.
Regarding `CC(C)NC(=O)OC1COC(c2cc(NC(=O)Cc3ccccc3C(F)(F)F)n[nH]2)C1` (stereo not shown) [Compound 65], 97.3 nM corresponded to half-maximal inhibition (IC50).
`CC(C)NC(=O)OC1COC(c2cc(NC(=O)c3ccccc3)n[nH]2)C1` (stereo not shown) [Compound 66] showed an IC50 of 14.4 nM.
The figure for `CC(C)NC(=O)OC1COC(c2cc(NC(=O)c3ccccc3)n[nH]2)C1` (stereo not shown) [Compound 67] is 61.2 nM; for `CO[C@H]1C[C@H](C(=O)Nc2cc([C@H]3CC[C@@H](OC(=O)NC(C)C)C3)[nH]n2)C1` [Compound 68] it is 8 nM.
Consider `COCc1cc(C(=O)Nc2cc([C@H]3C[C@@H]4[C@H](C3)[C@H]4C(=O)NC(C)C)[nH]n2)n(C)n1` [Compound 69], for which it took 18.8 nM to reach half-maximal inhibition (IC50).
For the molecule `CC(C)NC(=O)O[C@@H]1CC[C@H](c2cc(NC(=O)[C@@H]3CCN(S(=O)(=O)C4CC4)C3)n[nH]2)C1` [Compound 70], inhibition was half-maximal at 1.2 nM (IC50).
The figure for `CC(C)NC(=O)O[C@@H]1CC[C@H](c2cc(NC(=O)[C@@H]3CCCN(S(C)(=O)=O)C3)n[nH]2)C1` [Compound 71] is 8.7 nM; for `COC1CN(CC(=O)Nc2cc([C@H]3CC[C@@H](OC(=O)NC(C)C)C3)[nH]n2)C1` [Compound 72] it is 210 nM.
For the molecule `COC[C@H]1C[C@@H]1C(=O)Nc1cc([C@H]2CC[C@@H](OC(=O)N[C@H](C)C3CC3)C2)[nH]n1` [Compound 73], the IC50 turned out to be 4.1 nM.
In turn, `CC(C)NC(=O)O[C@@H]1CC[C@H](c2cc(NC(=O)C3CN(S(C)(=O)=O)CC3C)n[nH]2)C1` (stereo partly shown) [Compound 74] displayed an IC50 of 2.2 nM.
The figure for `CC(C)NC(=O)O[C@@H]1CC[C@H](c2cc(NC(=O)C3CN(S(C)(=O)=O)CC3C)n[nH]2)C1` (stereo partly shown) [Compound 75] is 11.5 nM.
In the case of `CC(C)NC(=O)O[C@@H]1CC[C@H](c2cc(NC(=O)[C@H]3CCCN(S(C)(=O)=O)C3)n[nH]2)C1` [Compound 76], the concentration for half-maximal inhibition (IC50) was determined as 22.7 nM.
The figure for `CC(C)NC(=O)O[C@@H]1CO[C@H](c2cc(NC(=O)c3cc(C4CC4)nn3C)n[nH]2)C1` [Compound 77] is 56 nM; for `CCc1cc(C(=O)Nc2cc([C@@H]3C[C@H](OC(=O)NC(C)C)CO3)[nH]n2)n(C)n1` [Compound 78] it is 18.7 nM.
In turn, `CCc1cc(C(=O)Nc2cc([C@H]3C[C@@H](OC(=O)NC(C)C)CO3)[nH]n2)n(C)n1` [Compound 79] had a 50% inhibitory concentration (IC50) of 7.6 nM.
`CC(C)NC(=O)O[C@H]1CO[C@@H](c2cc(NC(=O)c3cc(C4CC4)nn3C)n[nH]2)C1` [Compound 80] displayed a 50% inhibitory concentration (IC50) of 15.4 nM.
The figure for `CS(=O)(=O)N1CC[C@@H](C(=O)Nc2cc([C@H]3CC[C@@H](OC(=O)NC45CC(C4)C5)C3)[nH]n2)C1` [Compound 81] is 0.9 nM.
The figure for `CC(C)NC(=O)O[C@@H]1CC[C@H](c2cc(NC(=O)CN3CC(F)C3)n[nH]2)C1` [Compound 82] is 114 nM; for `CC1(NC(=O)O[C@@H]2CC[C@H](c3cc(NC(=O)[C@@H]4CCN(S(C)(=O)=O)C4)n[nH]3)C2)CC1` [Compound 83] it is 1.1 nM; for `COCC1C[C@@H]1C(=O)Nc1cc([C@H]2CC[C@@H](OC(=O)NC(C)(C)C)C2)[nH]n1` (stereo partly shown) [Compound 85] it is 2 nM.
As for `CC(C)NC(=O)O[C@@H]1CC[C@H](c2cc(NC(=O)C3CC3C#N)n[nH]2)C1` (stereo partly shown) [Compound 87], the IC50 was determined as 3.6 nM.
For `Cc1cc(C(=O)Nc2cc([C@H]3C[C@@H](OC(=O)NC(C)C)CO3)[nH]n2)n(C)n1` [Compound 90] the value was 5.7 nM.
For `Cc1cc(C(=O)Nc2cc([C@@H]3C[C@H](OC(=O)NC(C)C)CO3)[nH]n2)n(C)n1` [Compound 91], the IC50 was found to be 19.1 nM.
For `CC(C)NC(=O)O[C@H]1CO[C@@H](c2cc(NC(=O)c3ccnn3CC(F)F)n[nH]2)C1` [Compound 92], the half-inhibitory concentration (IC50) is 2 nM.
The figure for `CC(C)NC(=O)O[C@@H]1CO[C@H](c2cc(NC(=O)c3ccnn3CC(F)F)n[nH]2)C1` [Compound 93] is 5.2 nM.
The molecule `Cn1nccc1C(=O)Nc1cc([C@H]2C[C@@H](OC(=O)NC3(C)CC3)CO2)[nH]n1` [Compound 94] came in with a 50% inhibitory concentration (IC50) of 1.3 nM.
The figure for `Cn1nccc1C(=O)Nc1cc([C@@H]2C[C@H](OC(=O)NC3(C)CC3)CO2)[nH]n1` [Compound 95] is 3.7 nM.
On to `Cn1nccc1C(=O)Nc1cc([C@H]2C[C@@H](OC(=O)NC34CC(C3)C4)CO2)[nH]n1` [Compound 96], for which the IC50 was determined as 0.8 nM.
For `COCc1cc(C(=O)Nc2cc([C@H]3C[C@@H]4[C@H](C3)[C@H]4C(=O)NC(C)(C)C)[nH]n2)n(C)n1` [Compound 98] the value was 18.8 nM.
On to `CC[C@H](C)NC(=O)O[C@H]1CO[C@@H](c2cc(NC(=O)c3ccnn3C)n[nH]2)C1` [Compound 99], for which 0.8 nM corresponded to half-maximal inhibition (IC50).
Molecule `Cn1nccc1C(=O)Nc1cc([C@H]2C[C@@H](OC(=O)NC(C)(C)C)CO2)[nH]n1` [Compound 101] yielded an IC50 of 1.5 nM.
Molecule `CC(C)NC(=O)O[C@@H]1CO[C@H](c2cc(NC(=O)Cc3ccc4ncn(C)c4c3)n[nH]2)C1` [Compound 103] had an IC50 of 10.8 nM.
In turn, `COCc1cc(F)cc(CC(=O)Nc2cc([C@@H]3C[C@H](OC(=O)NC(C)C)CO3)[nH]n2)c1` [Compound 104] displayed an IC50 of 17.5 nM.
In turn, `CC(C)NC(=O)O[C@@H]1CC[C@H](c2cc(NC(=O)[C@H]3C[C@@H]3COC(F)F)n[nH]2)C1` [Compound 105] gave a half-inhibitory concentration (IC50) of 1.1 nM.
Consider `CC(C)NC(=O)O[C@@H]1CC[C@H](c2cc(NC(=O)C34CC(C(F)F)(C3)C4)n[nH]2)C1` [Compound 106], for which the IC50 came out at 1.8 nM.
The figure for `CC(C)NC(=O)O[C@H]1CO[C@@H](c2cc(NC(=O)c3cc(C(F)F)nn3C)n[nH]2)C1` [Compound 111] is 4.1 nM.
